Reference: patent publication US20240425500A1 (priority 2021, published 2024)

Experiments:
Plasmopara viticola = test: whole plant or invertebrate; type: in vivo; conditions: foliar, read-out: control of Plasmopara viticola compared to untreated control
Pythium ultimum = Pythium ultimum / liquid culture (seedling damping off); type: cell-based; conditions: Globisporangium ultimum, liquid culture in PDB, 24 °C, 2-3 days after application, read-out: control of Pythium ultimum (inhibition of growth, photometric) compared to untreated control
Method: Pythium ultimum/Liquid Culture (Seedling Damping Off):
Mycelia fragments and oospores of a newly grown liquid culture of the fungus are directly mixed into nutrient broth (PDB potato dextrose broth). After placing a (DMSO) solution of test compound into a microtiter plate (96-well format), the nutrient broth containing the fungal mycelia/spore mixture is added. The test plates are incubated at 24° C. and the inhibition of growth is determined photometrically 2-3 days after application.

Phytophthora infestans = test: whole plant or invertebrate; type: in vivo; conditions: in Solanum lycopersicum, foliar, read-out: control of Phytophthora infestans compared to untreated control

Compound	pest or weed control at 200 ppm (Plasmopara viticola) [%]	inhibition at 20 ppm (Pythium ultimum) [%]	pest or weed control at 200 ppm (Phytophthora infestans) [%]
CC(=O)Nc1ccc(-c2cnc3ccc(C(=O)N(C)c4ccc(Cl)cc4)cn23)cc1 [Compound 1, 3-(4-acetamidophenyl)-N-(4-chlorophenyl)-N-methyl-imidazo[1,2-a]pyridine-6-carboxamide]	≥ 80	≥ 80	–
COC(=O)Nc1ccc(-c2cnc3ccc(C(=O)N(C)c4cccc(OC(F)F)c4)cn23)cc1 [Compound 9, methyl N-[4-[6-[[3-(difluoromethoxy)phenyl]-methyl-carbamoyl]imidazo[1,2-a]pyridin-3-yl]phenyl]carbamate]	≥ 80	≥ 80	–
COC(=O)Nc1ccc(-c2cnc3ccc(C(=O)N(C)c4cc(OC)cc(OC)c4)cn23)cn1 [Compound 58, methyl N-[5-[6-[(3,5-dimethoxyphenyl)-methyl-carbamoyl]imidazo[1,2-a]pyridin-3-yl]-2-pyridyl]carbamate]	≥ 80	≥ 80	–
COC(=O)Nc1ccc(-c2cnc3ccc(C(=O)N(C)c4ccccc4)cn23)cn1 [Compound 61, methyl N-[5-[6-[methyl(phenyl)carbamoyl]imidazo[1,2-a]pyridin-3-yl]-2-pyridyl]carbamate]	≥ 80	≥ 80	–
COC(=O)Nc1ccc(-c2cnc3ccc(C(=O)N(C)c4ccc(C)cc4)cn23)cn1 [Compound 64, methyl N-[5-[6-[methyl (p-tolyl)carbamoyl]imidazo [1,2-a]pyridin-3-yl]-2-pyridyl]carbamate]	≥ 80	≥ 80	–
COCCOc1cc(N(C)C(=O)c2ccc3ncc(-c4ccc(NC(=O)OC)nc4)n3c2)ccc1F [Compound 77, methyl N-[5-[6-[[4-fluoro-3-(2-methoxyethoxy)phenyl]-methyl-carbamoyl]imidazo[1,2-a]pyridin-3-yl]-2-pyridyl]carbamate]	–	≥ 80	≥ 80
CCC(=O)Nc1ccc(-c2cnc3ccc(C(=O)N(C)c4ccc(F)c(C)c4)cn23)cn1 [Compound 78, N-(4-fluoro-3-methyl-phenyl)-N-methyl-3-[6-(propanoylamino)-3-pyridyl]imidazo[1,2-a]pyridine-6-carboxamide]	≥ 80	≥ 80	–
CNC(=O)Nc1ccc(-c2cnc3ccc(C(=O)N(C)c4ccc(F)c(OC)c4)cn23)cc1 [Compound 80, N-(4-fluoro-3-methoxy-phenyl)-N-methyl-3-[4-(methylcarbamoyl-amino)phenyl]imidazo[1,2-a]pyridine-6-carboxamide]	–	≥ 80	≥ 80
CNC(=O)Nc1ccc(-c2cnc3ccc(C(=O)N(C)c4ccc(F)c(OC)c4)cn23)cn1 [Compound 81, N-(4-fluoro-3-methoxy-phenyl)-N-methyl-3-[6-(methylcarbamoyl-amino)-3-pyridyl]imidazo[1,2-a]pyridine-6-carboxamide]	–	≥ 80	≥ 80
COC(=O)Nc1ccc(-c2cnc3c(C4CC4)cc(C(=O)N(C)c4ccc(F)cc4)cn23)cn1 [Compound 83, methyl N-[5-[8-cyclopropyl-6-[(4-fluorophenyl)-methyl-carbamoyl]imidazo[1,2-a]pyridin-3-yl]-2-pyridyl]carbamate]	–	≥ 80	≥ 80
COC(=O)Nc1ccc(-c2cnc3ccc(C(=O)N(CS(C)(=O)=O)c4ccc(F)c(OC)c4)cn23)cn1 [Compound 92, methyl N-[5-[6-[(4-fluoro-3-methoxy-phenyl)-(methylsulfonylmethyl)carbamoyl]imidazo[1,2-a]pyridin-3-yl]-2-pyridyl] carbamate]	–	≥ 80	≥ 80
CNC(=O)CN(C(=O)c1ccc2ncc(-c3ccc(NC(=O)OC)nc3)n2c1)c1ccc(F)c(OC)c1 [Compound 97, methyl N-[5-[6-[(4-fluoro-3-methoxy-phenyl)-[2-(methylamino)-2-oxo-ethyl]carbamoyl]imidazo[1,2-a]pyridin-3-yl]-2-pyridyl]carbamate]	–	≥ 80	≥ 80
CONC(=O)Nc1ccc(-c2cnc3ccc(C(=O)N(C)c4ccc(F)c(OC)c4)cn23)cn1 [Compound 99]	–	≥ 80	≥ 80
COC(=O)Nc1ccc(-c2cnc3ccc(C(=O)N(c4ccc(F)cc4)C4CCC4)cn23)cn1 [Compound 109, methyl N-[5-[6-[cyclobutyl-(4-fluorophenyl)carbamoyl]imidazo [1,2-a]pyridin-3-yl]-2-pyridyl]carbamate]	–	≥ 80	≥ 80
CNC(=O)c1cccc(N(C)C(=O)c2ccc3ncc(-c4ccc(NC(=O)OC)nc4)n3c2)c1 [Compound 115, methyl N-[5-[6-[methyl-[3-(methylcarbamoyl)phenyl]carbamoyl]imidazo[1,2-a]pyridin-3-yl]-2-pyridyl]carbamate]	–	≥ 80	≥ 80
CCOCCN(C(=O)c1ccc2ncc(-c3ccc(NC(=O)OC)nc3)n2c1)c1ccc(Cl)cc1 [Compound 123, methyl N-[5-[6-[(4-chlorophenyl)-(2-ethoxyethyl)carbamoyl]imidazo[1,2-a]pyridin-3-yl]-2-pyridyl]carbamate]	–	≥ 80	≥ 80
COC(=O)Nc1ccc(-c2cnc3ccc(C(=O)N(CCC#N)c4ccc(Cl)cc4)cn23)cn1 [Compound 128, methyl N-[5-[6-[(4-chlorophenyl)-(2-cyanoethyl)carbamoyl]imidazo[1,2-a]pyridin-3-yl]-2-pyridyl]carbamate]	–	≥ 80	≥ 80
CCN(C(=O)c1ccc2ncc(-c3ccc(NC(=O)OC)nc3)n2c1)c1ccc(Cl)cc1 [Compound 129, methyl N-[5-[6-[(4-chlorophenyl)-ethyl-carbamoyl]imidazo[1,2-a]pyridin-3-yl]-2-pyridyl]carbamate]	–	≥ 80	≥ 80
COC(=O)Nc1ccc(-c2cnc3ccc(C(=O)N(CCC#N)c4cccc(C)c4)cn23)cn1 [Compound 130, methyl N-[5-[6-[2-cyanoethyl(m-tolyl)carbamoyl]imidazo [1,2-a]pyridin-3-yl]-2-pyridyl]carbamate]	–	≥ 80	≥ 80
COC(=O)Nc1ccc(-c2cnc3ccc(C(=O)N(CCC#N)c4ccc(F)cc4)cn23)cn1 [Compound 132, methyl N-[5-[6-[2-cyanoethyl-(4-fluorophenyl)carbamoyl]imidazo [1,2-a]pyridin-3-yl]-2-pyridyl]carbamate]	–	≥ 80	≥ 80
COC(=O)Nc1ccc(-c2cnc3ccc(C(=O)N(c4ccc(F)cc4)C(C)C)cn23)cn1 [Compound 140, methyl N-[5-[6-[(4-fluorophenyl)-isopropyl-carbamoyl]imidazo[1,2-a]pyridin-3-yl]-2-pyridyl]carbamate]	–	≥ 80	≥ 80
CC(=O)Nc1ccc(-c2cnc3c(C)cc(C(=O)N(C)c4ccc(F)cc4)cn23)cn1 [Compound 168, 3-(6-acetamido-3-pyridyl)-N-(4-fluorophenyl)-N,8-dimethyl-imidazo[1,2-a]pyridine-6-carboxamide]	–	≥ 80	≥ 80
